# Experimental data as given in publication PMC6151468, “Efficacy of Bioactive Cyclic Peptides in Rheumatoid Arthritis: Translation from In Vitro to In Vivo Models” (Molecules : A Journal of Synthetic Chemistry and Natural …, 2017).
# Tested on: Collagen Antibody-Induced Arthritis (CAIA) model
# Assay: CAIA model in mice, first study
# Format: in vivo
# Settings: ten-day period; Humira 10 mg/kg bolus day 1; Lex 5.2 0.32 mg/kg/day i.p.; compared with stimulated untreated animals; Figure 11
# From the text: In light of the ability of cyclic peptides to alter the behaviour of macrophages, down-regulating TNF secretion both in vitro and in vivo, the investigation was extended to examine whether such peptides could have an impact on inflammatory diseases such as rheumatoid arthritis, where activation of macrophages, and secretion of TNF, is an important component. The CAIA model was chosen, as its use of lipopolysaccharide as one of the stimulants mirrors the models already employed. The other inducer of inflammation is a cocktail of anti-collagen antibodies, which are agents thought to contribute to disease in the human condition. A scheme of the experimental design is shown in Figure 8, and detailed methodology is provided in the Materials and Methods section of this article. […]
# A range of different parameters was measured, as follows: (i) clinical score—a subjective assessment of the number of joints in each paw affected; (ii) paw thickness—measurement of oedema in the paws, reflecting the severity of inflammation; (iii) TNF levels—rise in the bloodstream immediately after LPS administration; (iv) weight change—loss of weight resulting from inflammation. […]
substance,measurement,value
adalimumab [Humira],Change in weight,much reduced
